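48-hour exposure; five concentrations; linearly interpolated endpoints. TGI marks complete inhibition of growth.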 *1 amine or outer side, *2 acyl side, *3 side chain or, on linkers, in order; H or OH if unused. Where a SMILES comes first, the peptide text is derived from it. [ ]: non-standard residue; d: D form. The star is where a group is joined. ξ: configuration not given here. NMeY = CN[C@@H](Cc1ccc(O)cc1)C(=O)O; Ethylenediamine = C(CN[*:2])N[*:1]; ξNMeL = CNC(CC(C)C)C(=O)O; Cbz = O=C(OCc1ccccc1)*; Lac = C[C@H](O)C(=O)O; ξA = CC(N)C(=O)O
Columns and labels:
Assay in all cases: DTP human tumour cell line panel, 48 h
[1] = tested on: NCI-H460 lung
[2] = tested on: A498 renal
[3] = tested on: COLO 205 colon
[4] = tested on: HOP-18 NSCLC
[5] = tested on: XF 498 CNS
[6] = tested on: KM20L2 colon
[7] = tested on: LXFL 529 NSCLC
[8] = tested on: DMS 114 small cell lung
[9] = tested on: DMS 273 small cell lung
[10] = tested on: M19-MEL melanoma
[11] = tested on: SNB-78 CNS
[12] = tested on: DLD-1 colon

Row | Compound | TGI [1] [µM] | TGI [2] [µM] | TGI [3] [µM] | also measured
1 | O/N=C(/C(Cl)=C(Cl)Cl)C(Cl)Cl | > 100 | > 100 | 44.2 | 
2 | COC(=O)CCC1=NCC(C)(C)O1 | > 10 | > 10 | > 10 | 
3 | O=C1C2=Cc3ccccc3OC2(O)Oc2ccccc21 (configuration not stated) |  | > 100 | > 100 | 
4 | COc1cc2cc(C(=O)N3CC(CCl)c4ccc([N+](C)(C)Cc5ccc([N+](=O)[O-])cc5)cc43)[nH]c2c(OC)c1OC (configuration not stated) | 4 | 3.5 | 14.2 | 
5 | O=C1CCC(=O)N1CNc1ccc2c(c1)S(=O)(=O)c1ccccc1O2 |  | > 100 | > 100 | 
6 | CNCCN[C@@H]1c2cc3c(cc2[C@@H](c2cc(OC)c(O)c(OC)c2)[C@H]2C(=O)OC[C@@H]21)OCO3 |  |  | 12 | 
7 | COC(=O)c1cc(OS(=O)(=O)C(F)(F)F)c(=O)n2c1CCCC2 |  | > 100 | > 100 | 
8 | O/N=C1\CC2(N3CCOCC3)CCC1(c1ccccc1)CC2 | > 100 | > 100 | > 100 | 
9 | CC(=O)c1c(SCCN2CCOCC2)n(-c2ccccc2)c(=S)n(-c2ccccc2)c1=O | 60.7 | 26.1 | 41.8 | 
10 | C=C(Cl)/C(=C\Cl)CCC(Cl)C(C)C (configuration not stated) | > 100 | > 100 | > 100 | 
11 | CCN(CC)Cc1ccccc1CC(=O)N1c2ccccc2C(=O)Nc2cccnc21 | > 100 | > 100 | > 100 | 
12 | O=C(Cc1nc2sc3c(c2c(=O)[nH]1)CCCC3)Nc1ccccc1 | > 100 | > 100 | > 100 | TGI [4]: > 100 µM; TGI [5]: > 100 µM; TGI [6]: > 100 µM; TGI [7]: > 100 µM; TGI [8]: > 100 µM; TGI [9]: > 100 µM; TGI [10]: > 100 µM
13 | N#C/C(c1nc2ccccc2[nH]1)=c1\s/c(=C(/N)O)c(=N)n1-c1ccccc1 | > 100 | > 100 | > 100 | TGI [11]: > 100 µM; TGI [12]: > 100 µM; TGI [5]: > 100 µM; TGI [6]: > 100 µM; TGI [7]: > 100 µM; TGI [8]: > 100 µM; TGI [9]: > 100 µM; TGI [10]: > 100 µM
14 | O=C1c2c(ccc3c2CCC3)CC1Cc1ccc2c(c1)CCC2 (configuration not stated) | > 100 | > 100 | 51.4 | 
15 | Cc1ccc(/C=C2/N=C(N/N=C\C(O)C(O)C(O)CO)NC2=O)cc1 (configuration not stated) | > 100 | > 100 | > 100 | 
16 | CC(C)(C)c1cc2c(c(C(C)(C)C)c1O)CC(=O)O2 | > 100 | 94.7 | 37.6 | 
17 | CCCN(CCC)C(=S)N/N=C(/C)c1ccccc1O | 13.3 | 36.3 | 21.8 | 
18 | COC(=O)C1CCC(=O)N1CN(C(C)=O)c1cc(OC)ccc1OC (configuration not stated) | > 100 | > 100 | > 100 | 
19 | Cc1c(O)c(OC2OC(CO)C(O)C(O)C2O)cc2c1C=C[C@@H]1[C@@]2(C)C(=O)C[C@]2(C)[C@@H]([C@@](C)(O)C(O)/C=C/C(C)(C)O)[C@H](O)C[C@@]12C (some centres not stated) | > 100 | > 100 | > 100 | 

Row | Compound | TGI [1] [µM] | TGI [2] [µM] | TGI [3] [µM] | also measured
20 | COc1cccc2c1C1(O)C2CCCCCCCCCC12OCCCO2 (configuration not stated) | > 59.5 | > 100 | > 100 | TGI [11]: > 100 µM; TGI [12]: > 100 µM; TGI [4]: > 100 µM; TGI [6]: > 100 µM; TGI [7]: > 100 µM; TGI [8]: > 100 µM; TGI [9]: > 100 µM
21 | C=C1[C@H]2O[C@H]2[C@@H](OC(C)=O)[C@@]2(C)[C@@H](OC(C)=O)C[C@@H](OC(=O)CCC)[C@@](C)(O)[C@@H]2[C@@H](OC(C)=O)[C@]2(O)[C@@H](C)C(=O)O[C@H]2[C@H]1Cl | > 100 | > 100 | > 100 | 
22 | Cc1c[nH]c(C(=O)O)c1-c1cccn1-c1ccc(Cl)cc1[N+](=O)[O-] | > 100 | > 100 | > 100 | 
23 | Cc1cc(S(=O)(=O)Nc2nnc3c4ccccc4cnn23)c(S)cc1Cl | > 85.1 | > 100 | > 100 | 
24 | Cn1c2c(c3ccccc31)CCN=C2C1CCCOC1=O (configuration not stated) | > 100 | > 100 | > 100 | 
25 | Cn1nc2ccc([N+](=O)[O-])cc2[n+]1[O-] | > 100 | > 100 | > 100 | 
26 | CCOC(=O)c1nc2ccccc2nc1NCc1ccc(OC)c(OC)c1 | > 100 | > 100 | > 100 | 
27 | CC(=O)OC1OC(c2ccoc2)C[C@@]12C1CCC3O[C@]3(C)[C@]1(C)[C@H](OC(C)=O)[C@H](OC(C)=O)[C@H]2C (some centres not stated) | > 37.5 | > 37.5 | > 37.5 | 
28 | O=[N+]([O-])c1ccc(-n2nc3ccc4c(no[n+]4[O-])c3[n+]2[O-])c([N+](=O)[O-])c1 | 40.6 | 16.3 | 3.29 | 
29 | COc1ccc(C[C@@H](C(=O)NCCNC(=O)C(CC(C)C)N(C)C(=O)[C@@H]2CCCN2C(=O)[C@H](C)O)N(C)C(=O)[C@@H]2CCCN2C(=O)[C@H](CC(C)C)NC(=O)C(C)NC(=O)OCc2ccccc2)cc1 (some centres not stated) (Cbz-[ξA]LP[NMeY](Me)-{Ethylenediamine-ξNMeL-Pro-Lac}) | > 100 | > 100 | > 100 | 
30 | N#CCCN(CCC#N)c1ccc(C(N=Nc2ccc(Cl)cc2)=Nc2ccccc2)cc1 | 22.5 | 34.5 | 12.4 | 
31 | Cc1cccc(NC(=O)O/N=C(\Cl)C(C)C)c1 | 33.2 | 34.4 | 3.76 | 
32 | c1ccc2c(c1)nn1c3ccc4nonc4c3[n-][n+]21 | > 100 | > 100 | > 100 | 
33 | COCCOC(=O)NCn1cc(-c2ccccc2)nn1 | > 100 |  | > 100 | 
34 | CN(C)CCNCc1ccc2c(-c3ccccc3)nc3cc(Cl)c(Cl)cc3n12 | 23.9 | 29.9 | 14.1 | 
35 | C[C@@H](CC(=O)O)OC1OC(COC(=O)C(C)(C)C)C(OC(=O)C(C)(C)C)C(OC(=O)C(C)(C)C)C1OC(=O)C(C)(C)C (some centres not stated) | 75.7 | > 100 | > 100 | 
36 | CC(=O)NC1C(OC(C)C(=O)NC(C(=O)NC(CCC(=O)NCCCNC2c3ccccc3Nc3cccc([N+](=O)[O-])c32)C(N)=O)C(C)C)C(O)C(CO)OC1(C)OCc1ccccc1 (configuration not stated) | 0.405 | 4.11 | 7.77 | 
37 | COc1ccc2c(c1)c1c(n2CCN2CCOCC2)-c2cccc(OC)c2CC1 | > 100 | > 100 | 28.5 | 
